{"source": "patent US8183271B2", "about": "“Tetrazole derivatives and their use for the treatment of cardiovascular diseases” (Bayer Intellectual Property GmbH, priority 2005, dated 2012)", "key": {"[1]": {"biological_target": "T1, Heme-free sGC (recombinant soluble guanylate cyclase) (Rattus norvegicus, UniProt P20595)", "T1 construct": "made in house", "T1 sequence (P20595 1-619)": "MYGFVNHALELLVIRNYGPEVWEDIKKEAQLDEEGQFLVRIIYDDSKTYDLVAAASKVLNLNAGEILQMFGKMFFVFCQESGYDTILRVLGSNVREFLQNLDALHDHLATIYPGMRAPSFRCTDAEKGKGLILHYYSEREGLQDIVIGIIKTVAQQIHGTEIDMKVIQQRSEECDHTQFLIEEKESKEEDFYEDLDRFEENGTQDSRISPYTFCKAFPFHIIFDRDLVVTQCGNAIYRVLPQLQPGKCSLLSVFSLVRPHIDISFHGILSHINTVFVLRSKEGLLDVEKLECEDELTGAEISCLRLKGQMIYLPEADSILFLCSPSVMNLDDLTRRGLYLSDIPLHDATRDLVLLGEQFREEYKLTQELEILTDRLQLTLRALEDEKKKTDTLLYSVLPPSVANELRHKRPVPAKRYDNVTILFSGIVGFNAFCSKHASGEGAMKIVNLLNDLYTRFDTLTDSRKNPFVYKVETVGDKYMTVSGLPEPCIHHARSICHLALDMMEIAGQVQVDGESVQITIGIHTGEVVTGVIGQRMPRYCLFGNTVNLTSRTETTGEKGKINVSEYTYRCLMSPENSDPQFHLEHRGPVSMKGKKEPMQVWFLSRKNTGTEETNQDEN", "T1 sequence (P19686 1-690 partner)": "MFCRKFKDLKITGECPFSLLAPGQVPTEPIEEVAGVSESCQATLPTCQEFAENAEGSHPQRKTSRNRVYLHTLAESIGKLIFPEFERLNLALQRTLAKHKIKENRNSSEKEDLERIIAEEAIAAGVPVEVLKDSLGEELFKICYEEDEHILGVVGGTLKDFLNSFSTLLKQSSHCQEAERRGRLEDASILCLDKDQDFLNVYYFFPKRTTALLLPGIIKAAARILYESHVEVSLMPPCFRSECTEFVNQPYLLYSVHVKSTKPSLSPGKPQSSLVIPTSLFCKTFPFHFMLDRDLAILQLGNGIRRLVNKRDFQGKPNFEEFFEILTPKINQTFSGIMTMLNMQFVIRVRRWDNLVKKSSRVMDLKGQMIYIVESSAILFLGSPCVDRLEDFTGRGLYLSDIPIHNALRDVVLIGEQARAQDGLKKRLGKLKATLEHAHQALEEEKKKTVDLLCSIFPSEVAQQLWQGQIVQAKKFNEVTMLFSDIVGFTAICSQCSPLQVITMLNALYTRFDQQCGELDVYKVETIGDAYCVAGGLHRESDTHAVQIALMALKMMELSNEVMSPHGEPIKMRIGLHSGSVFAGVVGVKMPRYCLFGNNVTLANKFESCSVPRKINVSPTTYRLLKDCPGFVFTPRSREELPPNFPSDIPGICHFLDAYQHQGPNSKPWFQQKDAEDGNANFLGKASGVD", "assay": "Stimulation of recombinant soluble guanylate cyclase (sGC) in vitro, heme-free enzyme", "assay_type": "biochemical", "experimental": "Investigations on the stimulation of recombinant soluble guanylate cyclase (sGC) by the compounds according to the invention with and without sodium nitroprusside, and with and without the heme-dependent sGC inhibitor 1H-1,2,4-oxadiazole-(4,3a)-quinoxalin-1-one (ODQ) are carried out by the method described in detail in the following reference: M. Hoenicka, E. M. Becker, H. Apeler, T. Sirichoke, H. Schroeder, R. Gerzer and J.-P. Stasch, “Purified soluble guanylyl cyclase expressed in a baculovirus/Sf9 system: Stimulation by YC-1, nitric oxide, and […]”, J. Mol. Med. 77 (1999), 14-23. The heme-free guanylate cyclase is obtained by adding Tween 20 to the sample buffer (0.5% in the final concentration).\nThe activation of sGC by a test substance is reported as n-fold stimulation of the basal activity."}, "[2]": {"test_system": "spontaneously hypertensive rats (SH rats)", "assay": "Radiotelemetric measurement of blood pressure and heart rate on conscious SH rats", "assay_type": "in vivo", "conditions": "oral administration of 10 mg/kg", "experimental": "A commercially available telemetry system from Data Sciences International DSI, USA, is employed for the measurements on conscious SH rats described below.\nThe system consists of 3 main components: (1) implantable transmitter, (2) receiver which is linked via a multiplexer to a (3) data acquisition computer. The telemetry system makes it possible to record continuously the blood pressure and heart rate on conscious animals in their usual habitat.\nThe investigations are carried out on adult female spontaneously hypertensive rats (SH rats) with a body weight of >200 g. After transmitter implantation, the experimental animals are housed singly in type 3 Makrolon cages. They have free access to standard feed and water. […]\nIn the standard procedure, the following are measured for 10-second periods in each case: (1) systolic blood pressure (SBP), (2) diastolic blood pressure (DBP), (3) mean arterial pressure (MAP) and (4) heart rate (HR).\nMeasurement acquisition is repeated under computer control at 5-minute intervals. The source data obtained as absolute value are corrected in the diagram with the currently measured barometric pressure and stored in individual data. […]\nThe test substances are administered at 9.00 h on the day of the experiment. Following the administration, the parameters described above are measured over 24 hours. […]"}}}
{"smiles": "CC(C)(C)c1ccc(COc2ccccc2/C=C/C(CCc2ccc(-c3nnn[nH]3)cc2)Cc2ccc(C(=O)O)cc2)cc1", "note": "(single isomer, unassigned) [Example 6, 4-((3E)-4-{2-[(4-tert-Butylbenzyl)oxy]phenyl}-2-{2-[4-(1H-tetrazol-5-yl)phenyl]ethyl}but-3-en-1-yl)benzoic acid]", "values": [{"measurement": "Stimulation (n-fold) Heme-free sGC Basal", "setting": "[1]; 0.001 μM Example 6", "value": 3.2, "unit": "n-fold"}, {"measurement": "Stimulation (n-fold) Heme-free sGC +10 μM ODQ", "setting": "[1]; 0.001 μM Example 6 + 10 μM ODQ", "value": 3.0, "unit": "n-fold"}, {"measurement": "Stimulation (n-fold) Heme-free sGC Basal", "setting": "[1]; 0.01 μM Example 6", "value": 20.4, "unit": "n-fold"}, {"measurement": "Stimulation (n-fold) Heme-free sGC +10 μM ODQ", "setting": "[1]; 0.01 μM Example 6 + 10 μM ODQ", "value": 18.9, "unit": "n-fold"}, {"measurement": "Stimulation (n-fold) Heme-free sGC Basal", "setting": "[1]; 0.1 μM Example 6", "value": 90.9, "unit": "n-fold"}, {"measurement": "Stimulation (n-fold) Heme-free sGC +10 μM ODQ", "setting": "[1]; 0.1 μM Example 6 + 10 μM ODQ", "value": 89.7, "unit": "n-fold"}, {"measurement": "Stimulation (n-fold) Heme-free sGC Basal", "setting": "[1]; 1 μM Example 6", "value": 143.8, "unit": "n-fold"}, {"measurement": "Stimulation (n-fold) Heme-free sGC +10 μM ODQ", "setting": "[1]; 1 μM Example 6 + 10 μM ODQ", "value": 143.8, "unit": "n-fold"}, {"measurement": "Stimulation (n-fold) Heme-free sGC Basal", "setting": "[1]; 10 μM Example 6", "value": 145.9, "unit": "n-fold"}, {"measurement": "Stimulation (n-fold) Heme-free sGC +10 μM ODQ", "setting": "[1]; 10 μM Example 6 + 10 μM ODQ", "value": 149.3, "unit": "n-fold"}, {"measurement": "Period of blood pressure reduction", "setting": "[2]", "value": 11, "unit": "h"}, {"measurement": "Reduction in blood pressure", "setting": "[2]", "value": "marked reduction in blood pressure"}]}
